This note sets out measurements from publication PMC10599993, “The PTPN2/PTPN1 inhibitor ABBV-CLS-484 unleashes potent anti-tumour immunity” (Nature, 2023).

In general, IC50 refers to the concentration at which inhibition is half-maximal. The term AC50 denotes the midpoint of the concentration-response curve, whichever way the signal moves. A low value points to greater potency.

One experiment deals with T1, PTPN1 (Homo sapiens, UniProt P18031).
T1 construct: full-length recombinant
Put plainly: mobility shift enzyme assay with labelled insulin receptor phosphopeptide (crystal with PTPN1 mentioned, data not shown). Format: biochemical.

For a further experiment, the target named is T2, 5-HT transporter (Homo sapiens, UniProt P31645).
T2 construct: gene SLC6A4
Put plainly: biochemical. As to conditions: antagonist radioligand. The arrangement: Safety pharmacology off-target panel at Eurofins, radioligand binding with agonist or antagonist radioligand (Supplementary Table 2). The procedure:
(§1) Wide-range phosphatase, kinase and preclinical safety pharmacology off-target activity screens were conducted at Eurofins (Extended Data Table 5 and Supplementary Tables 1 and 2). A small phosphatase panel was developed at AbbVie to assess IC50 values on select phosphatases. The following enzymes used in the phosphatase selectivity panel were purchased from Eurofins: PTPN1 (PTP1B; 14–621), PTPN2 (TC-PTP; 14–646), PTPN9 (14–592), SHP1 (14–591) and SHP2 (14–622). The catalytic activity of the phosphatase was monitored using the small-molecule substrate DiFMUP (ThermoFisher) in a fluorescence assay format. In brief, the phosphatase reactions were performed at room temperature in the following assay buffer: 50 mM HEPES, pH 7.2, 100 mM NaCl, 1 mM EDTA, 0.005% Tween-20 and 5 mM TCEP. Each phosphatase was incubated with increasing concentrations of AC484 for 5 min, after which the substrate DiFMUP was added and incubated at 25 °C for 30 min. The final concentration of the enzyme and substrate was maintained at 0.5 nM and 5 μM, respectively, in all the assays. The reaction was then quenched by the addition of a 100 μM solution of bpV(Phen) (Enzo Life Sciences). The fluorescence signal was monitored using an Envision microplate reader (Perkin-Elmer) using excitation and emission wavelengths of 340 nm and 450 nm, respectively. The dose–response curves for the inhibitors were analysed using normalized IC50 regression curve fitting with control-based normalization. Supplementary file 41586_2023_6575_MOESM4_ESM.xlsx: Supplementary Table 2 AC484 receptor selectivity screen.

The target in a further experiment is T3, 5-HT1A (Homo sapiens, UniProt P08908).
T3 construct: gene HTR1A
Nature of the experiment: biochemical. The arrangement: Safety pharmacology off-target panel at Eurofins, radioligand binding with agonist or antagonist radioligand (Supplementary Table 2). As to conditions: agonist radioligand. As to the method:
as §1

The next experiment deals with T4, 5-HT2C (Homo sapiens, UniProt P28335).
T4 construct: gene HTR2C
T4 sequence (P28335 whole entry): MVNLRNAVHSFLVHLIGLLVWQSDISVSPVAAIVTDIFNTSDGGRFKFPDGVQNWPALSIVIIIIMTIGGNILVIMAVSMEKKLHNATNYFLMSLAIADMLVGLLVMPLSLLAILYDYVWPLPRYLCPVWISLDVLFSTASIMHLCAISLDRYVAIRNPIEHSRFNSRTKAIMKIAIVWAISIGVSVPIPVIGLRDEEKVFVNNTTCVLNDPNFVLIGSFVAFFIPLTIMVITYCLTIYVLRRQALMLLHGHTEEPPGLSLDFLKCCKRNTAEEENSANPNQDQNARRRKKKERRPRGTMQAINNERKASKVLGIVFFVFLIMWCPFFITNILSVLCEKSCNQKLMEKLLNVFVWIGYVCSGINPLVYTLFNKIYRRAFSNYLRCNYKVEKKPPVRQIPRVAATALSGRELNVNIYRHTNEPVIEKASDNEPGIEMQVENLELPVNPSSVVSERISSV
Nature of the experiment: biochemical. The conditions noted are these: antagonist radioligand. Further details: Safety pharmacology off-target panel at Eurofins, radioligand binding with agonist or antagonist radioligand (Supplementary Table 2). As to the method: as §1

Another experiment has as its target T5, AT2 (h) (Homo sapiens, UniProt P50052).
T5 construct: gene AGTR2
Put plainly: biochemical. The arrangement: Safety pharmacology off-target panel at Eurofins, radioligand binding with agonist or antagonist radioligand (Supplementary Table 2). The conditions noted are these: agonist radioligand. As to the method: as §1

Another experiment deals with T6, B2 (Homo sapiens, UniProt P30411).
T6 construct: gene BDKRB2
T6 sequence (P30411 whole entry): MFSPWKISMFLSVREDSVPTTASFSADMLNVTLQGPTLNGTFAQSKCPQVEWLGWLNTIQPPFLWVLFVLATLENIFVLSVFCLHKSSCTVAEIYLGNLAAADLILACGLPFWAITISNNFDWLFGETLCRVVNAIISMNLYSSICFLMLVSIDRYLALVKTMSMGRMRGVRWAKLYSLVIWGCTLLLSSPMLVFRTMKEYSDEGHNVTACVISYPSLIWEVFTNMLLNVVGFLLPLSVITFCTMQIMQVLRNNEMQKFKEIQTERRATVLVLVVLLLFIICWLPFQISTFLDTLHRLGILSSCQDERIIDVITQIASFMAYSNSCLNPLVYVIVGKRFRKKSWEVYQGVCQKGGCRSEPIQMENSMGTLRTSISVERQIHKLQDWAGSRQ
Nature of the experiment: biochemical. The conditions noted are these: agonist radioligand. Further details: Safety pharmacology off-target panel at Eurofins, radioligand binding with agonist or antagonist radioligand (Supplementary Table 2). The procedure: as §1

A further experiment has as its target T7, CB2 (Homo sapiens, UniProt P34972).
T7 construct: gene CNR2
Put plainly: biochemical. As to conditions: agonist radioligand. Further details: Safety pharmacology off-target panel at Eurofins, radioligand binding with agonist or antagonist radioligand (Supplementary Table 2). The procedure: as §1

The target of a further experiment is T8, CCK1 (CCKA) (Homo sapiens, UniProt P32238).
T8 construct: gene CCKAR
Put plainly: biochemical. The arrangement: Safety pharmacology off-target panel at Eurofins, radioligand binding with agonist or antagonist radioligand (Supplementary Table 2). As to conditions: agonist radioligand. As to the method:
as §1

In another experiment the target is T9, Dopamine transporter (Homo sapiens, UniProt Q01959).
T9 construct: gene SLC6A3
Nature of the experiment: biochemical. The arrangement: Safety pharmacology off-target panel at Eurofins, radioligand binding with agonist or antagonist radioligand (Supplementary Table 2). The conditions noted are these: antagonist radioligand. As to the method:
as §1

The target in the next experiment is T10, GABAA1 (a1.b2.g2) (Homo sapiens, UniProt P14867+P18507+P47870).
T10 construct: gene GABRA1; a1.b2.g2
Put plainly: biochemical. The arrangement: Safety pharmacology off-target panel at Eurofins, radioligand binding with agonist or antagonist radioligand (Supplementary Table 2). The conditions noted are these: agonist radioligand. The procedure: as §1

A further experiment has as its target T11, MT2 (ML1B) (Homo sapiens, UniProt P49286).
T11 construct: gene MTNR1B; ML1B
Put plainly: biochemical. The arrangement: Safety pharmacology off-target panel at Eurofins, radioligand binding with agonist or antagonist radioligand (Supplementary Table 2). As to conditions: agonist radioligand. The procedure:
as §1

The target in another experiment is T12, NK1 (Homo sapiens, UniProt P25103).
T12 construct: gene TACR1
T12 sequence (P25103 whole entry): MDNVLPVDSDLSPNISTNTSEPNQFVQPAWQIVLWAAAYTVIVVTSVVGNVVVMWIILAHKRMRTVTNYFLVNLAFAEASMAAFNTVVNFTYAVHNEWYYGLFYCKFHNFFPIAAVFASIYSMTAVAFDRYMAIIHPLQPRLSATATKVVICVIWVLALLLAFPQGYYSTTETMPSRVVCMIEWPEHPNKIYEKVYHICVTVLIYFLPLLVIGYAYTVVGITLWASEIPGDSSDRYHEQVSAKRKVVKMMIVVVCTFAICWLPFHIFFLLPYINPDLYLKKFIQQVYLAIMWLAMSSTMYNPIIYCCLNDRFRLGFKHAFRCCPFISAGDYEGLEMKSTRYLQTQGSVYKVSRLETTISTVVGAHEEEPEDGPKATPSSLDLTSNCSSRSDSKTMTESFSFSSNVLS
Put plainly: biochemical. Further details: Safety pharmacology off-target panel at Eurofins, radioligand binding with agonist or antagonist radioligand (Supplementary Table 2). The conditions noted are these: agonist radioligand. As to the method:
as §1

The next experiment deals with T13, UT (Homo sapiens, UniProt Q9UKP6).
T13 construct: gene UTS2R
Nature of the experiment: biochemical. The arrangement: Safety pharmacology off-target panel at Eurofins, radioligand binding with agonist or antagonist radioligand (Supplementary Table 2). The conditions noted are these: agonist radioligand. The procedure:
as §1

The next experiment has as its target T14, V1a (Homo sapiens, UniProt P37288).
T14 construct: gene AVPR1A
Put plainly: biochemical. Further details: Safety pharmacology off-target panel at Eurofins, radioligand binding with agonist or antagonist radioligand (Supplementary Table 2). As to conditions: agonist radioligand. As to the method:
as §1

The target in the next experiment is T15, a1A (h) (Homo sapiens, UniProt P35348).
T15 construct: gene ADRA1A
T15 sequence (P35348 whole entry): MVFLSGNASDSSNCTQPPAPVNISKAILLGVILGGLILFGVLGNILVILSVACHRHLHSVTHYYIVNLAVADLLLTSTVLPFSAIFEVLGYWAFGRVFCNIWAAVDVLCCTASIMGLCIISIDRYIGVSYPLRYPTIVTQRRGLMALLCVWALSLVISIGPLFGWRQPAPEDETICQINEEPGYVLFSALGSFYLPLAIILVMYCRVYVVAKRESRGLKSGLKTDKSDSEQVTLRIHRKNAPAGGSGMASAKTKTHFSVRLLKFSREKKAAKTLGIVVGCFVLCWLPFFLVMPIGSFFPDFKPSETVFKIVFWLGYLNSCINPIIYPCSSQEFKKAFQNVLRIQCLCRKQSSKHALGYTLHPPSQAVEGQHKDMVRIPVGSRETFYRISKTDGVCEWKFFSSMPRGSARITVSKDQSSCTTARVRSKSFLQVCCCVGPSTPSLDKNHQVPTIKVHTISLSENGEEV
Nature of the experiment: biochemical. The arrangement: Safety pharmacology off-target panel at Eurofins, radioligand binding with agonist or antagonist radioligand (Supplementary Table 2). The conditions noted are these: antagonist radioligand. As to the method:
as §1

Another experiment addresses T16, a1B (h) (Homo sapiens, UniProt P35368).
T16 construct: gene ADRA1B
Nature of the experiment: biochemical. The arrangement: Safety pharmacology off-target panel at Eurofins, radioligand binding with agonist or antagonist radioligand (Supplementary Table 2). As to conditions: antagonist radioligand. As to the method: as §1

In another experiment the target is T17, a2A (h) (Homo sapiens, UniProt P08913).
T17 construct: gene ADRA2A
T17 sequence (P08913 whole entry): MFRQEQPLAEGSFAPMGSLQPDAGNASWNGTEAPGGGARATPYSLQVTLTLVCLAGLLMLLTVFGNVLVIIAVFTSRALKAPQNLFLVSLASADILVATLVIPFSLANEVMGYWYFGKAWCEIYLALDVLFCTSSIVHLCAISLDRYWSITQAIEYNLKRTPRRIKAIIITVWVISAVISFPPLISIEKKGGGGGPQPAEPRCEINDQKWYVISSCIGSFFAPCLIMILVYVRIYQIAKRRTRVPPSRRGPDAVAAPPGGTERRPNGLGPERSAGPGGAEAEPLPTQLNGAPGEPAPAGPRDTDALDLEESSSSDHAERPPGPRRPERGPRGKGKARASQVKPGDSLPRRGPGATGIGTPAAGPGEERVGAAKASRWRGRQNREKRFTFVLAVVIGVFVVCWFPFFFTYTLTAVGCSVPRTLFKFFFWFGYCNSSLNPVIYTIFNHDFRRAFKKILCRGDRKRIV
Put plainly: biochemical. As to conditions: antagonist radioligand. Further details: Safety pharmacology off-target panel at Eurofins, radioligand binding with agonist or antagonist radioligand (Supplementary Table 2). The procedure: as §1

A further experiment has as its target T18, b2 (h) (Homo sapiens, UniProt P07550).
T18 construct: gene ADRB2
Put plainly: biochemical. The arrangement: Safety pharmacology off-target panel at Eurofins, radioligand binding with agonist or antagonist radioligand (Supplementary Table 2). As to conditions: antagonist radioligand. The procedure:
as §1

A further experiment concerns the target T19, d (DOP) (Homo sapiens, UniProt P41143).
T19 construct: gene OPRD1; DOP
Put plainly: biochemical. The arrangement: Safety pharmacology off-target panel at Eurofins, radioligand binding with agonist or antagonist radioligand (Supplementary Table 2). As to conditions: agonist radioligand. As to the method:
as §1

T1 sequence (P18031 whole entry): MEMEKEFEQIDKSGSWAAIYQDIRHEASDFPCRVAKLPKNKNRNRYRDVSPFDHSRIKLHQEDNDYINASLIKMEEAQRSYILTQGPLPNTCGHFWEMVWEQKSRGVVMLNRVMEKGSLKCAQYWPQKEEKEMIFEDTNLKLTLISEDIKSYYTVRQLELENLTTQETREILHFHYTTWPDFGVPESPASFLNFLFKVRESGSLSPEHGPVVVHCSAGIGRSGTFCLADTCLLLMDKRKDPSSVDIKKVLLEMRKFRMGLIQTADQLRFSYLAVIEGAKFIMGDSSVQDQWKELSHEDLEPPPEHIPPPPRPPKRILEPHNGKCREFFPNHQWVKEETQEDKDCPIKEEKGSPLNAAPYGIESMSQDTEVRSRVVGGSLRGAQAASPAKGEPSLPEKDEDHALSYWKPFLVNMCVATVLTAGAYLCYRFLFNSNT
T5 sequence (P50052 whole entry): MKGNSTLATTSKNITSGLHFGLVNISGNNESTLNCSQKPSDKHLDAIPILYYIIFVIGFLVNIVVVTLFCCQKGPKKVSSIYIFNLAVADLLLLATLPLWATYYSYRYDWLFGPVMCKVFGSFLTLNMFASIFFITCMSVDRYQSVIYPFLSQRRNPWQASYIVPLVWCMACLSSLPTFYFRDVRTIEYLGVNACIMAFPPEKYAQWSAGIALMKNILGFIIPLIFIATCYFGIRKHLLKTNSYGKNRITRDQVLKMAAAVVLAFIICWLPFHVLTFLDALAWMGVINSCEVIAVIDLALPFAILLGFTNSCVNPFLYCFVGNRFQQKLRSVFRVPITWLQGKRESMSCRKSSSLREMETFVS
T19 sequence (P41143 whole entry): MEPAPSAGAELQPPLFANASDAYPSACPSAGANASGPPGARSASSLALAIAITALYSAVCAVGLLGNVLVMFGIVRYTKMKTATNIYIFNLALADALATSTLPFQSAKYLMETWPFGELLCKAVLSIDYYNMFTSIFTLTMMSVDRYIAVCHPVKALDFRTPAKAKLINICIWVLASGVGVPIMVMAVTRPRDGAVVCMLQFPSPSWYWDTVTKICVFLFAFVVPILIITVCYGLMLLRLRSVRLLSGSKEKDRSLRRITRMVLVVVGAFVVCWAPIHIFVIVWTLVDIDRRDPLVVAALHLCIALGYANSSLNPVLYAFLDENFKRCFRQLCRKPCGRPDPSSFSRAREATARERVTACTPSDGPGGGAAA
T18 sequence (P07550 whole entry): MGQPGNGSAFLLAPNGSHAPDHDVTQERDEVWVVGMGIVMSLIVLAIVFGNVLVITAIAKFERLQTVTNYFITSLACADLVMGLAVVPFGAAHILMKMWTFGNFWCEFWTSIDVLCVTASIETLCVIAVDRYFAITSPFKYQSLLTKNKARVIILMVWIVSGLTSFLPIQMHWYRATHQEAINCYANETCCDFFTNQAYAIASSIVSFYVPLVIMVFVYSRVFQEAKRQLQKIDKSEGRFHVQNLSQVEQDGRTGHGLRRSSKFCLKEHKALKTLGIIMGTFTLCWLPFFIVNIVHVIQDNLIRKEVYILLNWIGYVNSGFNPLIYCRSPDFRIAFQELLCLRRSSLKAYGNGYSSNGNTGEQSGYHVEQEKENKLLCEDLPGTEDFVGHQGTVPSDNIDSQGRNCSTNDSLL
T16 sequence (P35368 whole entry): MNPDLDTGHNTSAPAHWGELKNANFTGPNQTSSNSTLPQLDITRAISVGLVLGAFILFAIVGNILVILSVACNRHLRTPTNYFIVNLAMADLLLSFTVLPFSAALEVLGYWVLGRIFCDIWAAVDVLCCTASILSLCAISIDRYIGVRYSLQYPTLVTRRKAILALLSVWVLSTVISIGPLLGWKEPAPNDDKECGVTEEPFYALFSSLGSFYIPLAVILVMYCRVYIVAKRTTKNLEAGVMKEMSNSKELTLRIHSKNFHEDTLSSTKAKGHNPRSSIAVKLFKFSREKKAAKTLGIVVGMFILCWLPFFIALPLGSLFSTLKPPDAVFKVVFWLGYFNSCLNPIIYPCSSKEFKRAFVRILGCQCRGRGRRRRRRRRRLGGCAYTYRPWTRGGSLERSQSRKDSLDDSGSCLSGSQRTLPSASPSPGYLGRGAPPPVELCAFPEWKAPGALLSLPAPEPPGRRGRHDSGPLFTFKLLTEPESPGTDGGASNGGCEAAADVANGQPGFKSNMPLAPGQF
T7 sequence (P34972 whole entry): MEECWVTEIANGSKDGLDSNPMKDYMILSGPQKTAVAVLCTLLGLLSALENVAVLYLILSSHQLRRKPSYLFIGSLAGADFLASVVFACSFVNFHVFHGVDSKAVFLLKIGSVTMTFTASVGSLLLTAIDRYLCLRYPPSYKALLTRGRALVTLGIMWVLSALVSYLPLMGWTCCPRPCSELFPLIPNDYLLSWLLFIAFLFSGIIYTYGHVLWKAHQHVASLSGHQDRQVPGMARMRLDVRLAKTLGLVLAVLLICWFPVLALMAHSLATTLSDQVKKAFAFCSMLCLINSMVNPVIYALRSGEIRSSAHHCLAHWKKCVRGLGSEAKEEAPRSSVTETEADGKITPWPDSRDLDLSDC

In the case of `CC(C)CCN[C@@H]1CCc2cc(O)c(N3CC(=O)NS3(=O)=O)c(F)c2C1` [AC484, ABBV-CLS-484], the IC50 at PTPN1 was found to be 0.0025 µM. In addition, the AC50 on 5-HT transporter, at 5-HT1A, on 5-HT2C, on AT2 (h), on B2 and on CB2 was greater than 0.01 mM each time. Also, the AC50 at CCK1 (CCKA), at Dopamine transporter, at GABAA1 (a1.b2.g2), at MT2 (ML1B), at NK1 and on UT was greater than 0.01 mM throughout. Further, the AC50 at V1a, at a1A (h), on a1B (h), on a2A (h), at b2 (h) and at d (DOP) was greater than 0.01 mM throughout.
